# Several values for one entry are separate records, joined by “and”; a condition that tells them apart may be missing. Equal values may be shown once.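 All cell lines were grown in 96-well plates and treated with compound for 48 hours. The concentration for 50% growth inhibition is given as GI50. The concentration for full growth arrest is given as TGI.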
# Legend:
# Test in all cases: DTP human tumour cell line panel, 48 h
# [1] = test system: 786-0 renal
# [2] = test system: ACHN renal
# [3] = test system: CCRF-CEM leukemia
# [4] = test system: HCC-2998 colon
# [5] = test system: MALME-3M melanoma
# [6] = test system: NCI-H460 lung
# [7] = test system: OVCAR-5 ovarian
# [8] = test system: RXF 393 renal
# [9] = test system: SK-MEL-5 melanoma
# [10] = test system: UO-31 renal
Structure (SMILES),GI50 [1],TGI [1],GI50 [2],TGI [2],GI50 [3],TGI [3],GI50 [4],TGI [4],GI50 [5] [µM],TGI [5] [µM],GI50 [6] [nM],TGI [6] [µM],GI50 [7] [µM],TGI [7] [µM],GI50 [8] [µM],TGI [8],GI50 [9],TGI [9],GI50 [10],TGI [10]
COc1cccc(NC(=O)c2ccc(NC3=C(Cl)C(=O)N(Cc4ccccc4)C3=O)cc2)c1,18.3 µM,33.9 µM,6.22 µM,19 µM,1.67 µM,4.35 µM,17 µM,30.6 µM,16,42.1,12300,30.4,27.5,65.7,2.09,14.9 µM,14000 nM,26.9 µM,18.2 µM,62.6 µM
COC(=O)[C@H](Cc1cn(C)cn1)NC(=O)[C@@H](NC(=O)Nc1cc(C(F)(F)F)cc(C(F)(F)F)c1)C(C)(C)C,> 10 µM,> 10 µM,> 10 µM,> 10 µM,> 10 µM,> 10 µM,> 10 µM,> 10 µM,> 10,> 10,> 10000,> 10,> 10,> 10,> 10,> 10 µM,> 10000 nM,> 10 µM,> 10 µM,> 10 µM
N#Cc1ccc(NC(=O)Nc2nc3ccc(OC(F)(F)F)cc3s2)cc1,2 µM,6.35 µM,0.732 µM,7.05 µM,1.51 µM,> 100 µM,1.28 µM,6.04 µM,0.843,5.92,605,7.81,4.28,16.1,1.87,7.39 µM,1150 nM,2.54 µM,1.67 µM,7.92 µM
Cc1ccccc1C[P+](c1ccccc1)(c1ccccc1)c1ccccc1,4.23 µM,> 100 µM,7.28 µM,> 100 µM,2.04 µM,> 100 µM,0.888 µM,24.2 µM,4.72,> 100,1730,12.9,2.86,> 100,4.5,37.1 µM,375 nM,1.58 µM,40.5 µM,> 100 µM
COc1cc(/C=C2\Cc3ccccc3C2=O)cc(OC)c1OC,,> 100 µM,,> 100 µM,,> 100 µM,,> 100 µM,,> 100,,> 100,,> 100,,> 100 µM,,> 100 µM,,> 100 µM
C=C1C(=O)O[C@H]2[C@H]1CC/C(Cn1cc(-c3ccsc3)nn1)=C\CC[C@@]1(C)O[C@@H]21,1.76 µM,3.96 µM,1.32 µM,2.69 µM,1.63 µM,12.3 µM,1.84 µM,3.42 µM,1.61,3.34,4710,18.9,2.29,7.13,1.07,2.46 µM,1830 nM,3.88 µM,1.35 µM,3.18 µM
Clc1nc(-c2ccccc2)nc(Cl)c1Cl,,22.8 µM,,9.33 µM,,7.99 µM,,20.5 µM,,17.6,,42.7,,30.4,,18.9 µM,,26.7 µM,,> 57.5 µM
COc1ccc(NS(=O)(=O)c2ccc(N=C3C=C(Nc4ccc(S(=O)(=O)Nc5ccc(OC)nn5)cc4)C(=O)c4ccccc43)cc2)nn1,,31.7 µM,,37.8 µM,,> 100 µM,,34.1 µM,,33.1,,31.5,,34.1,,32.8 µM,,35 µM,,37.8 µM
O=C(COC(=O)c1cccc2c(=O)c3ccccc3[nH]c12)Nc1ccc(S(=O)(=O)Nc2ncccn2)cc1,,> 100 µM,,> 100 µM,,67.4 µM,,> 100 µM,,> 100,,> 100,,> 100,,> 100 µM,,> 100 µM,,> 100 µM
CN=C(N)NC,,> 100 µM,,> 100 µM,,> 100 µM,,> 100 µM,,> 100,,> 100,,> 100,,> 100 µM,,> 100 µM,,> 100 µM
COc1cc2ccc3c4cc(OC)c(OC(C)C)cc4c[n+](C)c3c2cc1OC,,> 100 µM,,> 100 µM,,> 100 µM,,> 100 µM,,> 100,,> 100,,> 100,,> 100 µM,,> 100 µM,,> 100 µM
O=C(CC1SC(=Nc2ccccc2Cl)NC1=O)Nc1ccc(Cl)cc1 (configuration not stated),,> 100 µM,,> 100 µM,,> 100 µM,,> 100 µM,,> 100,,> 100,,> 100,,> 100 µM,,> 100 µM,,> 100 µM
CCOC(=O)c1csc(-c2nc(CCNC(=O)c3ccccc3)sc2Cl)n1,,> 100 µM,,> 100 µM,,> 100 µM,,> 100 µM,,> 100,,> 100,,> 100,,> 100 µM,,> 100 µM,,> 100 µM
O=C1CCC(N2C(=O)c3cccc(NCCOCCOCCNC(=O)c4cc5c(o4)C(=O)c4ccccc4C5=O)c3C2=O)C(=O)N1 (configuration not stated),3.14 µM,10.9 µM,2.3 µM,6.62 µM,3.45 µM,28.9 µM,1.89 µM,3.57 µM,0.184,0.448,1970,3.87,1.67,3.07,1.67,3.21 µM,787 nM,2.07 µM,3.51 µM,12.6 µM
CC(=O)OC1(C#N)CC2OC1C1N=NN(C(=O)OC(C)(C)C)C21 (configuration not stated),,> 100 µM,,> 100 µM,,83.8 µM,,> 100 µM,,> 68.2,,> 100,,> 100,,> 31.6 µM,,> 31.6 µM,,> 100 µM
CCC1(N)C(=O)OCc2c1cc1n(c2=O)Cc2cc3ccccc3nc2-1 (configuration not stated),3.31 µM,49.8 µM and > 54.6 µM,2.75 µM,12.2 µM and 21.3 µM,1.96 µM,,14.1 µM,41.1 µM and > 100 µM,24.5,> 100,1720,,30,> 100,15.4,63.1 µM and > 100 µM,7170 nM,20.4 µM and > 47.8 µM,4.43 µM,20.9 µM and 17.4 µM
CN(C)C1C(=O)C(C(N)=O)=C(O)C2(O)C(=O)C3=C(O)c4c(O)cccc4C(C)(O)C3CC12 (configuration not stated),26.1 µM and > 100 µM,63.8 µM and > 100 µM,39.9 µM and 82.7 µM,> 100 µM,22.8 µM and 67.5 µM,57.1 µM and > 100 µM,> 100 µM and 42.7 µM,> 100 µM,,> 100,,> 100,,> 100,,87.5 µM and > 100 µM,22400 nM and 56500 nM,39.9 µM and > 100 µM,41.9 µM and > 100 µM,> 100 µM
COC(=O)CCCNC(=O)C(=O)c1c(O)c(O)c(C(C)C)c2cc(C)c(-c3c(C)cc4c(C(C)C)c(O)c(O)c(C(=O)C(=O)NCCCC(=O)OC)c4c3O)c(O)c12,1.07 µM,7.54 µM,0.21 µM,4.09 µM,0.331 µM,> 32.5 µM,0.679 µM,7.98 µM,0.902,12.9,345,3.74,0.781,> 32.5,0.651,5 µM,1240 nM,4.7 µM,0.558 µM,4.05 µM
COCC(=O)NC/C=C/c1ccc2ncnc(Nc3ccc(Oc4ccc(C)nc4)c(C)c3)c2c1,15.1 µM,42 µM,3.98 µM,69.3 µM,14 µM,> 79.9 µM,20.1 µM,39.7 µM,14.4,35.4,4740,22.3,12.7,35.9,13.9,36.3 µM,3260 nM,13 µM,7.8 µM,35.9 µM
N.N.NCCCCCN.O=C([O-])CC(=O)[O-].O=C([O-])CC(=O)[O-].[Pt+4].[Pt+4],> 100 µM,> 100 µM,66.6 µM,> 100 µM,34 µM,> 100 µM,> 100 µM,> 100 µM,> 100,> 100,17400,> 100,> 100,> 100,> 100,> 100 µM,> 100000 nM,> 100 µM,> 100 µM,> 100 µM
O=C(Nc1ccc(N2CCNCC2)cn1)c1[nH]ncc1Nc1ncnc2sccc12,1.62 µM,3.23 µM,2.17 µM,5.33 µM,1.25 µM,6.97 µM,12.7 µM,32.1 µM,1.43,3.19,1730,3.57,2.08,5.19,3.32,18.8 µM,1710 nM,3.26 µM,14.4 µM,32 µM
Cn1cc2ccccc2c1-c1nc(F)nc(Nc2ccc(N)cc2)n1,,64 µM,,68 µM,,67.5 µM,,32.1 µM,,39.2,,31.5,,61.9,,45 µM,,25 µM,,53.8 µM
CCC(C)(C)NS(=O)(=O)c1ccccc1,,> 100 µM,,> 100 µM,,> 100 µM,,> 100 µM,,> 100,,> 100,,> 100,,> 100 µM,,> 100 µM,,> 100 µM
C[C@@]1(O)CCC[C@H]1n1c(=O)c(C(F)F)cc2cnc(NC3CCN(S(C)(=O)=O)CC3)nc21,1.9 µM,> 100 µM,1.37 µM,> 100 µM,1.5 µM,> 100 µM,0.539 µM,> 100 µM,1.29,5.37,109,11.9,1.21,> 100,1.24,2.9 µM,1150 nM,7.91 µM,1.2 µM,3.97 µM
CCOc1ccc(N=Cc2ccc3ccccc3n2)cc1,,> 100 µM,,> 100 µM,,> 100 µM,,> 100 µM,,> 100,,> 100,,> 100,,> 100 µM,,> 100 µM,,> 100 µM
CC(C)Cc1ccc(C(C)/C=C2\CCC(CN3CCCCC3)C2=O)cc1 (configuration not stated),,3.38 µM,,19.9 µM,,5.51 µM,,17.7 µM,,31.1,,66.1,,31.6,,5.73 µM,,27 µM,,23.7 µM
COc1ccccc1N1CCN(CCCOc2ccc(C(=O)/C=C3/C(=O)Nc4ccccc43)cc2)CC1,19.7 µM,> 70 µM,15.9 µM,> 77.6 µM,3.07 µM,> 43.2 µM,13.9 µM,32 µM,0.589,22.9,13500,65.5,16.6,59.9,11.2,27.5 µM,6900 nM,18.4 µM,16.3 µM,> 100 µM
O=C(Nc1ccc(-n2ccc3c(NC(=O)c4ccccc4)nccc32)cc1)c1ccc(N2CCOCC2)c(C(F)(F)F)c1,0.364 µM,,0.106 µM,22.8 µM,0.44 µM,> 100 µM,0.6 µM,> 53 µM,5.96,41.1,12.9,1.35,4.83,> 76.1,0.194,1.48 µM,92.8 nM,10.8 µM,0.557 µM,19.5 µM
NC(Cc1c[nH]c2cc(F)ccc12)C(=O)O (configuration not stated),1080 µM,> 2500 µM,1640 µM,> 2500 µM,1240 µM,> 2500 µM,1640 µM,> 2500 µM,859,2320,768000,> 2500,1090,> 2500,1450,> 2500 µM,557000 nM,1140 µM,,> 2500 µM

# From PubChem BioAssay (NCI)
